Test results from patent US5321030A, “Creatine analogs having antiviral activity” (priority 1991, dated 1994).
Converted amounts (≈) assume the structure as drawn.

Legend:
[1] = tested on: herpes simplex virus type 2 (HSV-2), strain E194; experiment: HSV-2 vaginitis in mice; assay type: in vivo, Swiss Webster female mice
[2] = tested on: HCMV, strain C8704 (DHPG resistant); experiment: microbe, parasite or virus in culture; assay type: cell-based, Human Cytomegalovirus; parameters: TI50 (CD50 ÷ ED50): unit not given beside the values; settings: for # Plaques: virus control 91.0 ± 8.4
[3] = tested on: Murine Cytomegalovirus (MCMV), strain Smith; experiment: Plaque reduction, murine cytomegalovirus in C127I cells; assay type: cell-based; settings: Murid betaherpesvirus 1; 10 mg/ml

SMILES: NC1=NCCN1CC(=O)O [cyclocreatine, 1-carboxymethyl-2-iminoimidazolidine]
- antiviral effect in vaginitis model ([1]; 1% dietary): comparable to that achieved by acyclovir at 200 mg/kg, 100 mg/kg or 50 mg/kg
- average lesion score ([1]; 1% in chow, Grand Ave. (Days 3-14)): 0.8 ± 0.2
- average lesion score ([1]; 1% in chow, day 3): 0.2 ± 0.2
- average lesion score ([1]; 1% in chow, day 4): 0.5 ± 0.7
- average lesion score ([1]; 1% in chow, day 5): 0.9 ± 1.3
- average lesion score ([1]; 1% in chow, day 6): 0.9 ± 1.3
- average lesion score ([1]; 1% in chow, day 7): 0.8 ± 1.4
- average lesion score ([1]; 1% in chow, day 8): 0.8 ± 1.4
- average lesion score ([1]; 1% in chow, day 9): 1.0 ± 1.3
- average lesion score ([1]; 1% in chow, day 10): 1.1 ± 1.3
- average lesion score ([1]; 1% in chow, day 11): 1.0 ± 1.3
- average lesion score ([1]; 1% in chow, day 12): 0.9 ± 1.3
- average lesion score ([1]; 1% in chow, day 13): 0.9 ± 1.4
- average lesion score ([1]; 1% in chow, day 14): 0.7 ± 1.4
- activity in vaginitis model ([1]; 5% and […] cream topical): inactive
- average lesion score ([1]; 5% cream topical, Grand Ave. (Days 3-14)): 2.3 ± 1.1
- average lesion score ([1]; 5% cream topical, day 3): 0.3 ± 0.3
- average lesion score ([1]; 5% cream topical, day 4): 0.4 ± 0.4
- average lesion score ([1]; 5% cream topical, day 5): 1.5 ± 1.1
- average lesion score ([1]; 5% cream topical, day 6): 2.1 ± 1.6
- average lesion score ([1]; 5% cream topical, day 7): 2.0 ± 1.3
- average lesion score ([1]; 5% cream topical, day 8): 2.8 ± 1.8
- average lesion score ([1]; 5% cream topical, day 9): 3.2 ± 1.6
- average lesion score ([1]; 5% cream topical, day 10): 3.2 ± 1.5
- average lesion score ([1]; 5% cream topical, day 11): 3.1 ± 1.5
- average lesion score ([1]; 5% cream topical, day 12): 3.0 ± 1.5
- average lesion score ([1]; 5% cream topical, day 13): 3.0 ± 1.5
- average lesion score ([1]; 5% cream topical, day 14): 3.0 ± 1.5
- survival ([1]; 10% cream topical (16% in the placebo group)): 40%
- effect on average lesion score ([1]; 10% cream topical, FIG. 10): slightly reduces the average lesion score
- average lesion score ([1]; 10% cream topical, Grand Ave. (Days 3-14)): 1.6 ± 0.8
- average lesion score ([1]; 10% cream topical, day 3): 0.2 ± 0.2
- average lesion score ([1]; 10% cream topical, day 4): 0.1 ± 0.2
- average lesion score ([1]; 10% cream topical, day 5): 0.9 ± 1.2
- average lesion score ([1]; 10% cream topical, day 6): 1.4 ± 1.9
- average lesion score ([1]; 10% cream topical, day 7): 1.6 ± 1.9
- average lesion score ([1]; 10% cream topical, day 8): 2.0 ± 2.0
- average lesion score ([1]; 10% cream topical, day 9): 2.2 ± 1.9
- average lesion score ([1]; 10% cream topical, day 10): 2.2 ± 1.9
- average lesion score ([1]; 10% cream topical, day 11): 2.1 ± 1.9
- average lesion score ([1]; 10% cream topical, day 12): 2.0 ± 1.9
- average lesion score ([1]; 10% cream topical, day 13): 2.0 ± 1.9
- average lesion score ([1]; 10% cream topical, day 14): 2.0 ± 1.9
- average lesion score ([1]; […] cream topical, Grand Ave. (Days 3-14)): 2.0 ± 0.9
- average lesion score ([1]; […] cream topical, day 3): 0.2 ± 0.2
- average lesion score ([1]; […] cream topical, day 4): 0.4 ± 0.6
- average lesion score ([1]; […] cream topical, day 5): 1.2 ± 1.3
- average lesion score ([1]; […] cream topical, day 6): 1.8 ± 1.8
- average lesion score ([1]; […] cream topical, day 7): 2.2 ± 1.8
- average lesion score ([1]; […] cream topical, day 8): 2.7 ± 1.7
- average lesion score ([1]; […] cream topical, day 9): 2.4 ± 1.9
- average lesion score ([1]; […] cream topical, day 10): 2.6 ± 1.7
- average lesion score ([1]; […] cream topical, day 11): 2.6 ± 1.7
- average lesion score ([1]; […] cream topical, day 12): 2.6 ± 1.7
- average lesion score ([1]; […] cream topical, day 13): 2.6 ± 1.7
- average lesion score ([1]; […] cream topical, day 14): 2.6 ± 1.7
- activity in vaginitis model, second experiment ([1]; cream topical): weak, but not statistically significant, activity
- Mean Day to Death ([1]; virus infected, AM-285 1% dietary): 6.0 ± 0.0
- # Plaques ([2]; AM 285 156.25 μg/ml): 81
- # Plaques ([2]; AM 285 312.5 μg/ml): 65.5
- # Plaques ([2]; AM 285 625 μg/ml): 52.5
- # Plaques ([2]; AM 285 1250 μg/ml): 48.5
- # Plaques ([2]; AM 285 2500 μg/ml): 14.5
- # Plaques ([2]; AM 285 5000 μg/ml): 3.5
- # Plaques ([2]; AM 285 10000 μg/ml): 0
- inhibition at 156.25 µg/mL ([2]; Human betaherpesvirus 5, MRC5, AM 285 156.25 μg/ml, read-out: % Reduction): 0%
- inhibition at 312.5 µg/mL ([2]; Human betaherpesvirus 5, MRC5, AM 285 312.5 μg/ml, read-out: % Reduction): 28%
- inhibition at 625 µg/mL ([2]; Human betaherpesvirus 5, MRC5, AM 285 625 μg/ml, read-out: % Reduction): 42%
- inhibition at 1250 µg/mL ([2]; Human betaherpesvirus 5, MRC5, AM 285 1250 μg/ml, read-out: % Reduction): 47%
- inhibition at 2500 µg/mL ([2]; Human betaherpesvirus 5, MRC5, AM 285 2500 μg/ml, read-out: % Reduction): 84%
- inhibition at 5000 µg/mL ([2]; Human betaherpesvirus 5, MRC5, AM 285 5000 μg/ml, read-out: % Reduction): 96%
- inhibition at 10000 µg/mL ([2]; Human betaherpesvirus 5, MRC5, AM 285 10000 μg/ml, read-out: % Reduction): 100%
- EC50 ([2]; Human betaherpesvirus 5, MRC5, MRC-5 cells, Table 6, read-out: ED50 (the source's name)): 900 µg/mL (≈ 6.29 mM)
- TI50 (CD50 ÷ ED50) ([2]; MRC-5 cells, Table 6): > 11.1
- inhibition at 10000 µg/mL [3]: 53%
